Values joined by “and” are separate entries in the source; they are usually repeats but may differ in a detail not shown here. Equal entries are not always repeated. Toxic doses and inconclusive results are not listed.
Test system: L1210 leukemia ip in BDF1 mice, survival T/C
Test: NCI In Vivo Anticancer Drug Screen. Data for tumor model L1210 Leukemia (intraperitoneal) in B6D2F1 (BDF1) mice
Settings: endpoint: mean survival time, higher = longer survival
Summary of the method: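 Mice bearing the transplanted tumor received compound or vehicle. Survival of the treated group was divided by that of the vehicle-treated control group to give the ratio.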

[1] = dose: 100.0 mg/kg/injection, schedule: Q04DX003 (ip), vehicle: Klucel (hydroxypropylcellulose) (HPC)
[2] = dose: 200.0 mg/kg/injection, schedule: Q04DX003 (ip), vehicle: Klucel (hydroxypropylcellulose) (HPC)
[3] = dose: 50.0 mg/kg/injection, schedule: Q01DX001 (ip), vehicle: Klucel (hydroxypropylcellulose) (HPC)
[4] = dose: 100.0 mg/kg/injection, schedule: Q04DX003 (ip), vehicle: saline with Tween-80
[5] = dose: 200.0 mg/kg/injection, schedule: Q04DX003 (ip), vehicle: saline with Tween-80
[6] = dose: 400.0 mg/kg/injection, schedule: Q04DX003 (ip), vehicle: saline with Tween-80
[7] = dose: 100.0 mg/kg/injection, schedule: Q04DX003 (ip), vehicle: saline

CC1c2ccccc2OC(=O)C1C(=O)O (configuration not stated)
T/C (dose: 88.8 mg/kg/injection, schedule: Q01DX001 (ip), vehicle: carboxymethylcellulose (CMC)): 94 % of control | T/C (dose: 100.0 mg/kg/injection, schedule: Q01DX001 (ip), vehicle: carboxymethylcellulose (CMC)): 94 % of control | T/C (dose: 133.4 mg/kg/injection, schedule: Q01DX001 (ip), vehicle: carboxymethylcellulose (CMC)): 94 % of control | T/C (dose: 300.0 mg/kg/injection, schedule: Q01DX001 (ip), vehicle: carboxymethylcellulose (CMC)): 100 % of control | T/C (dose: 400.0 mg/kg/injection, schedule: Q01DX001 (ip), vehicle: carboxymethylcellulose (CMC)): 94 % of control

CC(C)=CCN(CC=C(C)C)CCC(C#N)(c1cccc2ccccc12)C(C)C (configuration not stated)
T/C (dose: 25.0 mg/kg/injection, schedule: Q01DX009 (ip), vehicle: Klucel (hydroxypropylcellulose) (HPC)): 101 % of control | T/C (dose: 100.0 mg/kg/injection, schedule: Q01DX009 (ip), vehicle: Klucel (hydroxypropylcellulose) (HPC)): 93 % of control

COC(=O)C1=C(C)NC(=S)NC1c1ccc(N(CCCl)CCCl)cc1Cl (configuration not stated)
T/C [1]: 95 % of control | T/C [2]: 95 % of control | T/C (dose: 400.0 mg/kg/injection, schedule: Q04DX003 (ip), vehicle: Klucel (hydroxypropylcellulose) (HPC)): 101 % of control

c1cnc2c(c1)Oc1cccnc1N2
T/C [3]: 98 % of control | T/C (dose: 100.0 mg/kg/injection, schedule: Q01DX001 (ip), vehicle: Klucel (hydroxypropylcellulose) (HPC)): 92 % of control | T/C (dose: 200.0 mg/kg/injection, schedule: Q01DX001 (ip), vehicle: Klucel (hydroxypropylcellulose) (HPC)): 90 % of control

NC(=O)C(c1ccccc1)c1ccccc1
T/C [4]: 93 % of control | T/C [5]: 100 % of control | T/C [6]: 94 % of control

CC[N+](CC)(CC)CCCC[N+](CC)(CC)CC
T/C (dose: 12.5 mg/kg/injection, schedule: Q01DX009 (ip), vehicle: water): 100 % of control | T/C (dose: 25.0 mg/kg/injection, schedule: Q01DX009 (ip), vehicle: water): 96 % of control | T/C (dose: 50.0 mg/kg/injection, schedule: Q01DX009 (ip), vehicle: water): 90 % of control

O=NN(CC(=O)O)c1ccc2ccccc2c1
T/C (dose: 100.0 mg/kg/injection, schedule: Q04DX002 (ip), vehicle: saline with Tween-80): 90 % of control | T/C (dose: 200.0 mg/kg/injection, schedule: Q04DX002 (ip), vehicle: saline with Tween-80): 90 % of control | T/C (dose: 400.0 mg/kg/injection, schedule: Q04DX002 (ip), vehicle: saline with Tween-80): 93 % of control

C[NH-].C[NH-].[Cl][Pt+2][Cl]
T/C (dose: 0.38 mg/kg/injection, schedule: Q03HX024 (ip), vehicle: water): 111 % of control | T/C (dose: 0.75 mg/kg/injection, schedule: Q03HX024 (ip), vehicle: water): 109 % of control | T/C (dose: 1.0 mg/kg/injection, schedule: Q01DX009 (ip), vehicle: other): 108 % of control | T/C (dose: 1.5 mg/kg/injection, schedule: Q03HX024 (ip), vehicle: water): 107 % of control | T/C (dose: 1.56 mg/kg/injection, schedule: Q03HX008 (ip), vehicle: water): 106 % of control | T/C (dose: 2.0 mg/kg/injection, schedule: Q01DX001 (ip), vehicle: other): 108 % of control | T/C (dose: 2.0 mg/kg/injection, schedule: Q01DX009 (ip), vehicle: other): 122 % of control | T/C (dose: 2.5 mg/kg/injection, schedule: Q01DX009 (ip), vehicle: water): 110 % of control | T/C (dose: 2.6 mg/kg/injection, schedule: Q01DX009 (ip), vehicle: saline with Tween-80): 113 % of control | T/C (dose: 3.0 mg/kg/injection, schedule: Q04DX003 (ip), vehicle: water): 116 % of control | T/C (dose: 3.13 mg/kg/injection, schedule: Q03HX008 (ip), vehicle: water): 115 % of control | T/C (dose: 4.0 mg/kg/injection, schedule: Q01DX001 (ip), vehicle: other): 95 % of control | T/C (dose: 4.0 mg/kg/injection, schedule: Q01DX009 (ip), vehicle: other): 116 % of control | T/C (dose: 4.0 mg/kg/injection, schedule: Q01DX009 (ip), vehicle: saline with Tween-80): 124 % of control | T/C (dose: 5.0 mg/kg/injection, schedule: Q04DX003 (ip), vehicle: saline with Tween-80): 115 % of control and 120 % of control | T/C (dose: 6.0 mg/kg/injection, schedule: Q04DX003 (ip), vehicle: water): 123 % of control | T/C (dose: 8.0 mg/kg/injection, schedule: Q01DX001 (ip), vehicle: other): 105 % of control | T/C (dose: 8.0 mg/kg/injection, schedule: Q04DX003 (ip), vehicle: saline with Tween-80): 123 % of control | T/C (dose: 9.0 mg/kg/injection, schedule: Q01DX009 (ip), vehicle: saline with Tween-80): 108 % of control | T/C (dose: 12.0 mg/kg/injection, schedule: Q04DX003 (ip), vehicle: saline with Tween-80): 164 % of control | T/C (dose: 12.5 mg/kg/injection, schedule: Q01DX009 (ip), vehicle: saline with Tween-80): 98 % of control and 90 % of control | T/C (dose: 16.0 mg/kg/injection, schedule: Q01DX001 (ip), vehicle: other): 123 % of control | T/C (dose: 16.0 mg/kg/injection, schedule: Q01DX009 (ip), vehicle: other): 90 % of control | T/C (dose: 25.0 mg/kg/injection, schedule: Q01DX001 (ip), vehicle: water): 120 % of control | T/C (dose: 32.0 mg/kg/injection, schedule: Q01DX001 (ip), vehicle: other): 119 % of control | T/C (dose: 50.0 mg/kg/injection, schedule: Q04DX003 (ip), vehicle: saline with Tween-80): 88 % of control

O=[N+]([O-])c1ccc(C=Nc2ccccc2)s1
T/C [1]: 98 % of control | T/C [2]: 93 % of control

COc1ccc(NC(=O)C(c2ccccc2)c2ccccc2)cc1
T/C [4]: 92 % of control | T/C [5]: 93 % of control | T/C [6]: 92 % of control

CCCCCCCCC[As](=O)(O)O
T/C (dose: 1.5 mg/kg/injection, schedule: Q01DX001 (ip), vehicle: carboxymethylcellulose (CMC)): 98 % of control | T/C (dose: 3.0 mg/kg/injection, schedule: Q01DX001 (ip), vehicle: carboxymethylcellulose (CMC)): 104 % of control | T/C (dose: 60.0 mg/kg/injection, schedule: Q01DX001 (ip), vehicle: carboxymethylcellulose (CMC)): 109 % of control

CCCCCCCC(N)=O
T/C (dose: 50.0 mg/kg/injection, schedule: Q01DX009 (ip), vehicle: saline with Tween-80): 97 % of control | T/C (dose: 100.0 mg/kg/injection, schedule: Q01DX009 (ip), vehicle: saline with Tween-80): 107 % of control and 90 % of control | T/C [4]: 100 % of control | T/C (dose: 200.0 mg/kg/injection, schedule: Q01DX009 (ip), vehicle: saline with Tween-80): 97 % of control and 106 % of control | T/C [5]: 93 % of control | T/C (dose: 400.0 mg/kg/injection, schedule: Q01DX009 (ip), vehicle: saline with Tween-80): 114 % of control | T/C [6]: 91 % of control

Nc1nnc(N)c2ccccc12
T/C (dose: 100.0 mg/kg/injection, schedule: Q04DX002 (ip), vehicle: saline): 100 % of control | T/C (dose: 200.0 mg/kg/injection, schedule: Q04DX002 (ip), vehicle: saline): 96 % of control | T/C (dose: 400.0 mg/kg/injection, schedule: Q04DX002 (ip), vehicle: saline): 102 % of control

CC(=O)c1cccc(NS(=O)(=O)c2ccc(Cl)cc2)c1
T/C (dose: 100.0 mg/kg/injection, schedule: Q04DX002 (ip), vehicle: Klucel (hydroxypropylcellulose) (HPC)): 94 % of control | T/C (dose: 200.0 mg/kg/injection, schedule: Q04DX002 (ip), vehicle: Klucel (hydroxypropylcellulose) (HPC)): 100 % of control | T/C (dose: 400.0 mg/kg/injection, schedule: Q04DX002 (ip), vehicle: Klucel (hydroxypropylcellulose) (HPC)): 91 % of control

O=C1OC(c2ccc(Cl)cc2)=N/C1=C\c1ccccc1
T/C [4]: 100 % of control | T/C [5]: 90 % of control | T/C [6]: 91 % of control

COc1ccc(CC[N+]2=Cc3cc(OC)c(OC)cc3CC2)cc1OC
T/C (dose: 50.0 mg/kg/injection, schedule: Q01DX009 (ip), vehicle: saline): 97 % of control | T/C (dose: 100.0 mg/kg/injection, schedule: Q01DX009 (ip), vehicle: saline): 105 % of control | T/C [7]: 97 % of control | T/C (dose: 200.0 mg/kg/injection, schedule: Q04DX003 (ip), vehicle: saline): 101 % of control

Clc1ccc2c(CBr)ccnc2c1
T/C (dose: 100.0 mg/kg/injection, schedule: Q01DX001 (ip), vehicle: saline): 98 % of control | T/C (dose: 200.0 mg/kg/injection, schedule: Q01DX001 (ip), vehicle: saline): 104 % of control

CC[C@H]1CN2CCc3cc(OC)c(OC)cc3[C@@H]2C[C@@H]1C[C@@H]1c2cc(OC)c(OC)cc2CCN1N=O
T/C [7]: 100 % of control

CC1=CC(=O)N(C2=CC(=O)C=CC2=O)/C1=C/C#N
T/C (dose: 12.5 mg/kg/injection, schedule: Q01DX001 (ip), vehicle: Klucel (hydroxypropylcellulose) (HPC)): 97 % of control | T/C (dose: 25.0 mg/kg/injection, schedule: Q01DX001 (ip), vehicle: Klucel (hydroxypropylcellulose) (HPC)): 88 % of control | T/C [3]: 93 % of control and 89 % of control
